Measurements reported in patent publication US12514859B2, “Pyrazole pyrimidine derivative and uses thereof” (Yissum Research Development Company of the Hebrew …, priority 2015, dated 2026).

What was measured:
IRAK1/4 = settings: 10 μM; cited from earlier work
IRAK1 [1] = target: T1, IRAK1 (Homo sapiens, UniProt P51617); experiment: Kd measurements for the interaction with IRAK1; assay type: binding
T1 construct: RKO cells were incubated for 16 hours at 37° C. with the indicated concentrations of compounds; endogenous in cells; host or cells: RKO cells, stimulated with TNFα
T1 sequence (P51617 whole entry): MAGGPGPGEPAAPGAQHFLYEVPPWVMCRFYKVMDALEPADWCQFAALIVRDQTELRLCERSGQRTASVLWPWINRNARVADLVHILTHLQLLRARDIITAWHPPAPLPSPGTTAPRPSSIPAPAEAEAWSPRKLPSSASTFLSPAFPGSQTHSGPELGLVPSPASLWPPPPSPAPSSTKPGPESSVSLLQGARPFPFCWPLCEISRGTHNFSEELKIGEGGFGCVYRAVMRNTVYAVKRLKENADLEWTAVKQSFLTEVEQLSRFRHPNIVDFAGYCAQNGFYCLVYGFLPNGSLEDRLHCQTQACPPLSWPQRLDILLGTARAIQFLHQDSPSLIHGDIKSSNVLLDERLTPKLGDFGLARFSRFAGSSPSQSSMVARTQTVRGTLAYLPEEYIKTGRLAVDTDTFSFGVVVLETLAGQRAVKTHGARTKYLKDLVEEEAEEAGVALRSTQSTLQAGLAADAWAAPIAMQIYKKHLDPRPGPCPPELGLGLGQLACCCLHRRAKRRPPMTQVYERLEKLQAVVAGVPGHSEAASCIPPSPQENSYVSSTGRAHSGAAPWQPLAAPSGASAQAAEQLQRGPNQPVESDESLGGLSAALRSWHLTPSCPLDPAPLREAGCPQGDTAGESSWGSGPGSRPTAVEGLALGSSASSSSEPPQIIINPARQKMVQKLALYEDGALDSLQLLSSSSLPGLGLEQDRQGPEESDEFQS

IRAK1 [2] = target: T1, IRAK1; experiment: IRAK1 inhibition in RKO cells treated with TNFα (Western blot); assay type: cell-based
Experimental: (§1) Cells were harvested and analyzed by Western blot. Blots were incubated with the following antibodies: Phospho-IRAK1 (Thr209), (A1074, AssayBiothechnology; 1/1,000), Phospho-IKKα/β (Ser176/180) (16A6, Cell Signaling; 1/1,000), IKKα (2682, cell signaling; 1/1,1000), IKK β (2370, cell signaling; 1/1,1000), Phospho-c-Jun (Ser 63) (9261, cell signaling; 1/1,1000), p53 (DO-1&1801 hybridoma mix; dilution of 1:20 of supernatants from each), CKIα (C-19; 1/1,000; Santa Cruz Biotechnology) and phospho-histoneH2AX (S139; 1/1,000; Millipore). Secondary antibodies were HRP-linked goat anti-mouse, goat anti-rabbit and rabbit anti-goat antibodies (all 1/10,000; Jackson). Inhibition of Phospho-IRAK1, Phospho-IKKα/β and Phospho-c-Jun indicate IRAK1 inhibition. p53 stabilization and phosphorylation of H2AX (γH2AX), a marker of DNA damage, indicative of CKIα kinase inhibition. CKIα protein levels serves as a loading control.
as §1, with “IRAK1 Inhibition with compounds of the invention. RKO cells were incubated for 16 hours at 37° C. with the indicated concentrations of compounds of the invention A51 (1 μM) and A14 (2 μM) (FIG. 10). At the indicated time points, RKO were treated with TNFα (100 units/ml). Cells” for “Cells”, “IKKβ” for “IKK β”, “Blots were developed using ECL (GE Healthcare). […] Also shown is” for “Inhibition of Phospho-IRAK1, Phospho-IKKα/β and Phospho-c-Jun indicate IRAK1 inhibition.”

Wnt/β-catenin = experiment: β-catenin stabilization (Wnt pathway activation) in RKO cells (Western blot); assay type: cell-based; settings: 16 hours, Western blot
Experimental: (§2) Primary Screen in RKO cells for compounds having typical CKIα inhibitory activity (β-catenin and p53 stabilization and histone H2AX phosphorylation; see Elyada et al, Nature 2011 Feb. 17; 470(7334):409-13; Pribluda et al, Cancer Cell 2013 Aug. 12; 24(2):242-56). RKO colorectal cells were incubated with 10 μM of each of the compounds for 16 hours at 37° C. Cells were washed with PBS and cell pellets were incubated with ice cold protein lysis buffer containing protease inhibitor cocktail (1/200; Calbiochem) and phosphatase inhibitors (20 mM p-nitrophenyl phosphate (PNPP), 20 mM β-glycerophosphate and 300 nM okadaic acid). Western blot analysis was performed by means of standard techniques. Blots were incubated with antibodies detecting β-catenin (1/2,500; BD Transduction), p53 (DO-1&1801 hybridoma mix; dilution of 1:20 of supernatants from each), CKIα (C-19; 1/1,000; Santa Cruz Biotechnology) and phospho-histoneH2AX (S139; 1/1,000; Millipore). Secondary antibodies were HRP-linked goat anti-mouse, goat anti-rabbit and rabbit anti-goat antibodies (all 1/10,000; Jackson). Blots were developed using ECL (GE Healthcare).
(§3) Active compounds were further analyzed in a dose-response experiment (FIGS. 1A and 1B). Similar to the primary screen, RKO cells were incubated with descending concentrations of each of the active compounds for 16 hours at 37° C. Cell extract isolation and Western Blot analysis were similar to the primary screen.
(§4) Table 1 provides quantified information for compounds of the invention in activation of p53 and DNA damage response (DDR) and β-catenin stabilization as an indicator of Wnt pathway activation. p53 activation was determined according to the degree of protein stabilization in several Western blot assays (Western blot examples are shown in FIGS. 1A and 1B). […] In contrast, A35 started stabilizing p53 at […], with maximal stabilization at […] (FIG. 1A, upper right panel) and thus received an average value of +++ for p53 activation.

[3] = tested on: p53, DNA damage response (γH2AX); experiment: p53 and DNA damage response activation in RKO cells (Western blot, primary screen and dose response); assay type: cell-based; settings: 16 hours, Western blot, average value
Experimental: as §2, §3, §4

AML mice (MLL-AF9) = experiment: MLL-AF9 acute myeloid leukemia (AML) mouse model; assay type: in vivo
Experimental: Generation of a mouse model of acute myeloid leukemia (AML) (FIG. 6) and treatment with the CKIα inhibitor A14 (FIGS. 7, 8 and 9) or A51 (FIGS. 11 and 12). To generate the MLL-AF9 Acute myeloid leukemia (AML) model, bone marrow (BM) cells from 10 week old wild type mouse were extracted and enriched for cKit expressing cells (EasySep #18757) and incubated overnight in RPMI supplemented with 15% FCS L-Glutamine, Pen/Strep (Biological Industries, Israel) and stem cell factor (SCF), IL-3, IL-6 and TPO (Peprotech). The culture was infected with MSCV-MLL-AF9-IRES-GFP retrovirus construct containing supernatant medium for 4 hours, then growth medium was added and infected cells were incubated at 37° C. for additional 24 h. The culture was then injected I.V. into sub lethally irradiated (500 rad) mice. Upon detectable steady increase of GFP expressing cells in the mice peripheral blood (checked by FACS analysis) and rise in leukocyte numbers and immature cells (detected by Wright-Giemsa stained blood films), mice were sacrificed and their BM was transferred (1st BMT) to sublethally irradiated WT hosts. Upon emergence of AML disease mice were sacrificed and 50,000 BM cells were transplanted (2nd BMT) into WT host mice. GFP expressing cells were monitored in the peripheral blood and upon detecting >10% GFP^+ in PB (day 11 after BMT) mice were treated with A14 inhibitor (FIG. 7A). A14 was administered by oral gavage once a day at a dose of 20 mg/kg for 3 days followed by 10 mg/kg/day for 6 more days. The inhibitor was dissolved in 1% methyl cellulose with 0.1% Tween 80 and 0.2% Poly-ethylene glycol (Vehicle). Control mice were treated with the vehicle only. Mice were monitored daily for cachexia, lethargy, and ruff coats, and moribund mice were sacrificed. For a single dose experiment (FIG. 11A) A51 was administered by oral gavage at a single dose of 20 mg/kg and mice were sacrificed 16 hours following treatment.
Complete blood counts. Peripheral venous blood was obtained from the mouse facial vein using standard techniques and analyzed using the auto hematology analyzer BC-2800 (Mindray) per manufacturer's instructions.
Single-dose treatment effect of a CKI inhibitor in AML mice and PD-L1 expression. AML mice were prepared by inoculating MLL-AF9 oncogene-transduced bone marrow cells to C57/BL6 mice. MLL-AF9 fusion represents one of a poor prognosis human AML induced by chromosomal translocation. 30 days after leukemia inoculation, the recipient mice have high white blood cells (WBC) counts (×10 higher than a normal mouse), and harbor >95% leukemia blasts in the bone marrow and 50% of the peripheral WBC in these mice are AML blasts. These mice have splenomegaly and their bones are pale and fragile due to the acute leukemia (FIG. 12).

[4] = oral single dose 20 mg/Kg, 16 hrs

| SMILES | inhibition of IRAK1/4 in cell lines (IRAK1/4) | Kd (IRAK1 [1]) | IRAK1 activation and activation of the IRAK1 target IKK (in words) (IRAK1 [2]; RKO cells, Western blot, A51 1 μM, A14 2 μM, 16 hours, TNFα 100 units/ml) | inhibition at 1 µM (IRAK1 [2]; RKO, read-out: inhibition of phospho-(active) IRAK1) | β-Catenin activity (Wnt/β-catenin) | DDR & p53 activity [3] | leukemic spleen size (in words) (AML mice (MLL-AF9); [4]) | reduction of proportion of leukemic blasts (GFP+ cells) in the blood (AML mice (MLL-AF9); [4]) | reduction of proportion of leukemic blasts (GFP+ cells) in the bone marrow (AML mice (MLL-AF9); [4]) | total leukemia cells in the blood (in words) (AML mice (MLL-AF9); [4]) | bone colour (in words) (AML mice (MLL-AF9); single dose 20 mg/Kg) |
| --- | --- | --- | --- | --- | --- | --- | --- | --- | --- | --- | --- |
| O=C(Nc1nc2ccccc2n1CCN1CCOCC1)c1cccc([N+](=O)[O-])c1 [Amgen's IRAK1-4 inhibitor] | 70% | – | – | – | – | – | – | – | – | – | – |
| Cn1ncc(-c2nc(N[C@H]3CC[C@H](N)CC3)ncc2Cl)c1CC1CC1 [Compound A51, (1R, 4R)—N^1-(5-chloro-4-(5-(cyclopropylmethyl)-1-methyl-1H-pyrazol-4-yl)pyrimidin-2-yl)cyclohexane-1,4-diamine] | – | 2.9 nM | inhibition of IRAK1 activation | 100% | +++ (+++ indicates maximal β-catenin or p53 stabilization at >2 μM) | ++++ (++++ indicates maximal activation of p53 and DDR at >0.5 μM) | shrinking of the leukemic spleen | > 90% | 50% | massive reduction | Opaque bones turned to normal color |
